Reference: the NIST ThermoML archive (doi:10.1021/je050498q)
± gives the expanded uncertainty stated by the source.

Tests used:
[1] = wn = mass fraction of the nth substance listed; conditions: 101 kPa, Liquid, w2 = 0
[2] = refractive index (Na D-line) (dimensionless); wn = mass fraction of the nth substance listed; conditions: 101 kPa, Liquid, w2 = 0

## O [water] + O=C([O-])[C@H](O)[C@@H](O)C(=O)[O-].[Na+].[Na+]
[1]; 298.15 K
  viscosity: 0.89 ± 0.023 mPa·s
[1]; 308.15 K
  viscosity: 0.729 ± 0.019 mPa·s
[1]; 318.15 K
  viscosity: 0.6 ± 0.017 mPa·s
[2]; 298.15 K
  refractive index: 1.3325 ± 0.0007
[2]; 308.15 K
  refractive index: 1.3313 ± 0.0007
[2]; 318.15 K
  refractive index: 1.33 ± 0.0007
